Data published in patent US20040101840A1, “Identification, cloning and characterization of a novel pc-1 gene differentially expressed in prostate cells and tissues” (priority 2003, published 2004).

Key:
Format in all cases: cell-based, human
[1] = tested on: D52/N8 gene expression in LNCaP and C4-2 cells; assay: Androgen regulation of D52/N8 gene expression in prostate cancer cell lines
Description: (§1) Parental LNCaP and its derivative cell lines, C4, C4-2, and C4-2B, were described previously. ARCaP cells, a highly invasive prostate cancer cell line, were generated by our lab from the ascites fluid of a person with Al and aggressive human prostate cancer. […]. To test the effect of androgen in affecting PC-1 gene expression in prostate cancer cell lines, cells were exposed to a synthetic androgen methyltrioenolone (R1881) at a concentration of 0.1, 1, and 10 nM. To assess the specificity of androgen induction of PC-1 gene expression, some of the cells exposed to 10 nM of R1881 were also treated with an antiandrogen Casodex, 10 μM. […]
(§2) First strain cDNA was synthesized from 1 μg of total RNA with a hexamer random primer obtained from Perkin-Elmer using a MMLV reverse transcriptase obtained from Life Technologies, Inc. (Grand Island, N.Y.) according to the manufacturer's instructions. cDNAs obtained were subjected to Taq DNA polymerase PCR reaction under the condition of 94° for 1 minute, 60° for 1 minute, 72° for 45 seconds, or 94° for 1 minute, 53° for 1 minute, and 72° for 1 minute for 30 cycles, and an extension of 72° for 10 minutes. […] The PCR. products were evaluated on a 1% agarose gel and confirmed by Southern blot analysis. […]

[2] = tested on: PC-1 gene expression in LNCaP and C4-2 cells; assay: Antiandrogen blockade of androgen-induced PC-1 gene expression in prostate cancer cell lines
Description: as §1, with “[…] The culture was allowed to continue for two days and total cellular RNA was isolated and subjected to RT-PCR and Northern blot analysis for” for “To assess”, “expression” for “specificity of androgen induction”, “gene.” for “gene expression, some of the cells exposed to 10 nM of R1881 were also treated with an antiandrogen Casodex, 10 μM.”
as §2

[3] = tested on: PC-1 gene expression in LNCaP cells; assay: Androgen regulation of PC-1 gene expression in LNCaP cells (RT-PCR and Northern blot); settings: two days exposure
Description: (§3) Parental LNCaP and its derivative cell lines, C4, C4-2, and C4-2B, were described previously. ARCaP cells, a highly invasive prostate cancer cell line, were generated by our lab from the ascites fluid of a person with Al and aggressive human prostate cancer. All other cell lines were obtained from ATCC and were cultured in TB containing 5% FBS, as described previously. To test the effect of androgen in affecting PC-1 gene expression in prostate cancer cell lines, cells were exposed to a synthetic androgen methyltrioenolone (R1881) at a concentration of 0.1, 1, and 10 nM. To assess the specificity of androgen induction of PC-1 gene expression, some of the cells exposed to 10 nM of R1881 were also treated with an antiandrogen Casodex, 10 μM. […]
as §2

[4] = tested on: PC-1 gene expression in C4-2 cells; assay: Androgen regulation of PC-1 gene expression in C4-2 cells (RT-PCR and Northern blot); settings: two days exposure
Description: as §3, §2

CC(O)(CS(=O)(=O)c1ccc(F)cc1)C(=O)Nc1ccc(C#N)c(C(F)(F)F)c1 (stereo not drawn) [Casodex]
inhibition of D52/N8 expression ([1]; coadministration of R1881 and Casodex): nor was its expression inhibited | effect on R1881-increased expression of the PC-1 gene ([2]; coadministration with R1881, Casodex (10 nM) as printed in FIG. 5 legend): blocked | effect on androgen-induced PC-1 gene expression ([2]; coadministration with androgen, LNCaP and C4-2): effectively terminated

C[C@]1(O)CC[C@H]2[C@@H]3CCC4=CC(=O)CCC4=C3C=C[C@@]21C [R1881, methyltrioenolone]
regulation of D52/N8 expression by androgen ([1]; R1881 alone): not regulated | concentration required to increase PC-1 gene expression [3]: 1 nM | concentration at which steady-state levels of PC-1 gene expression are increased [4]: 0.1 nM
